Data set [1] relates to LNCaP cells. Description: Cell viability assay (Presto Blue), 48 h. The class given is cell-based, human. The note with it: 48 h treatment, mean of three independent experiments, n.a. = not active at tested concentrations (≤100 µM). The procedure:
(§1) To determine the anti-proliferative activity of the compounds on cancer cells, we performed dose–response treatments for 48 h on androgen-sensitive and androgen-insensitive PCa cells (LNCaP and PC3, respectively), as well as CRC cell lines (HCT116 and HT29).
(§2) The human colon cell lines, HT29 (ATCC Cat# HTB-38) and HCT116 (ATCC Cat# CCL-247), were grown in DMEM High-Glucose Medium (Biowest, Nuaillé, France), while the human prostate cell lines, PC3 (ATCC Cat# CRL-1435) and LNCaP (ATCC Cat# CRL-1740), were grown in Ham’s F12 (Biowest, Nuaillé, France) and RPMI 1640 (Biowest, Nuaillé, France), respectively. All media were supplemented with 2 mM glutamine, 100 IU/mL penicillin, 100 μg/mL streptomycin, and 10% fetal bovine serum (FBS, Gibco, Fisher Scientific Italia, Segrate (MI), Italia)). The cells were grown at 37 °C in a humified 5% CO2 atmosphere.
(§3) HCT116, HT29, PC3, or LNCaP cells were seeded into a 96-well plate at a density of 5000 cells/well. Cells were treated with eight different concentrations of pyrimidine derivates and curcumin for 48 h, at concentrations starting at 30 μM with 2-fold serial dilutions for curcumin and starting at 100 μM with 3-fold serial dilutions for pyrimidine derivates. Cell viability was measured using Presto Blue cell viability reagent (#A13261, Thermo Fisher Scientific, Waltham, MA, USA), according to the manufacturer’s protocol. The concentration at which cellular growth is inhibited by 50% (GI50) was determined.

The subject of data set [2] is PC3 cells. Kind of data set: Cell viability assay (Presto Blue), 48 h. It is filed as cell-based, human. The note with it: PC3, 48 h treatment, mean of three independent experiments, n.a. = not active at tested concentrations (≤100 µM). The procedure: as §1, §2, §3
In data set [3] the test system is LNCaP cells. Description: Cell cycle analysis (propidium iodide cytofluorimetry). It is filed as cell-based, human. The note with it: 48 h at GI50 dose; for % cells SubG1 (apoptotic cells): DMSO control 0.9; for % cells S: DMSO control 12.5; for % cells G2/M: DMSO control 18.4; for % cells G0/G1: DMSO control 65.1. The procedure: (§4) To further investigate the effects of PY1 and PY3 on cell growth, we analyzed the cell cycle progression of LNCaP cells treated at GI50 doses for 48 h (Figure 6 and Figure S4). […] Compared to curcumin, PY1 induced a similar but enhanced effect on the cell cycle, with apoptosis and S-phase being 9.6% and 6.4%, respectively. […] This effect was similarly observed in PC3 and HCT116 cells, with G2/M cells increasing from 14.6% to 62% in PC3 and from 17% to 33% in HCT116 cells (Figure S4).
(§5) Cells were seeded into a 24-well plate at a density of 35,000 cells/well and harvested after 48 h of treatment at GI50 concentrations. Cell cycle analysis of cells stained with propidium iodide solution (propidium iodide 25 µg/mL, Na-Citrate 3.4 mM, NaCl 9.65 mM, NP-40 0.03%) was performed using an Attune Next cytofluorimeter (Thermo Fisher Scientific, Waltham, MA, USA). DMSO was used as the control. Statistical analysis was performed with GraphPad PRISM 6 software (GraphPad Prism), using two-way ANOVA as specified in the figure legends. Graph represents means ± standard errors of the mean (SEM), n = 3. Data were considered to be statistically significant if p < 0.05 (*), p < 0.01 (**), p < 0.001(***), and p < 0.0001 (****).

Data set [4] has as its system HCT116 cells. Kind of data set: Cell viability assay (Presto Blue), 48 h. The note with it: Homo sapiens, HCT-116; HCT116, 48 h treatment, mean of three independent experiments; n.a. = not active at tested concentrations (≤100 µM). The class given is cell-based. The procedure: as §1, §2, §3
Data set [5] has as its system HT29 cells. Kind of data set: Cell viability assay (Presto Blue), 48 h. The class given is cell-based. The note with it: Homo sapiens, HT-29; HT29, 48 h treatment, mean of three independent experiments; n.a. = not active at tested concentrations (≤100 µM). The procedure:
as §1, §2, §3

On the set-up of data set [6]: method as in doi:10.1016/S0020-1693(01)00687-9. The note with it: cited from earlier work.
A short description of data set [7]: UV-Vis pH-metric spectrophotometric titration, protonation constants (HypSpec). The class given is physicochemical. The note with it: 298 K; for pKa: aqueous solution with <2% v/v methanol. From the text: Pyrimidine derivatives can be considered weak bases, and the pyrimidine nitrogens are protonated in extremely acid conditions (pH < 1), while the NH2 group has a pKa around 5 depending on the electronic effects of the substituents on the aromatic rings. As a consequence, the amino-pyrimidine moiety is in the neutral form at physiological pH (7.4). Among the synthesized compounds, MPY1, MPY3, and PY1 are characterized by additional acid/base moieties, particularly a phenolic group in the meta position for MPY1 and PY1 and an additional primary aliphatic amine for MPY3. To estimate the protonation constants, UV-visible spectroscopy was preferred over potentiometry since the lower concentration range that is required allows it to work in an aqueous medium with a negligible percentage of methanol (<2% v/v). Figure 3 reports the UV-Vis pH-metric titration of MPY1 in the pH range of 2–11. In extremely acid conditions (pH 2, red spectrum), the amine group on the pyrimidine ring is fully protonated, and the molecule is positively charged (H2L^+). The maximum absorbance is observed at 400 nm, with a shoulder at 500 nm. […] Finally, in basic conditions (pH 11, blue spectrum) the phenolic group is deprotonated, and a negatively charged species is observed (L^−) with λmax at 406 nm. […] By plotting the absorbance value vs. pH at λmax, a titration curve is observed ([…]), with two equivalent points around pH = 5 and pH = 9. […] PY1 (Figure S3) is fully protonated below pH 5 (H3L+) and negatively charged in basic conditions (HL^−, L^2−). To estimate protonation constants and pKa values, spectrophotometric data were elaborated using Hypspec, and the logβ values, together with pKa, are reported in Table 1.
To perform spectrophotometric titrations, ligands (denoted generally as L in the following) were dissolved in methanol to give a mother solution (2.50 mM) that was then diluted in water to a final volume of 25 mL in order to obtain a 25/50 μM concentration, depending on the compound, in order to have a maximum absorbance in a range of 0.4–1. The pH (initial value ~5) was varied by adding small amounts (1 μL) of concentrated NaOH/HCl (4 M) in order to investigate the spectral behavior of the 2–11 pH range. In these conditions, the volume variations were negligible. A constant ionic strength (NaNO3, 0.1 M) was maintained in all the experiments. The overall protonation constants (βqr) are defined by the following equations:qL^l− + rH^+ ⇌ [LqHr]^(r − ql)(1) (2) βqr=LqHr^r − ql/L^−l]^q · H^+]^r where L is the ligand in the completely dissociated form and H is a proton. βqr values were refined from spectrophotometric data using least-squares calculations in HypSpec. The results of least-squares calculations include the standard deviations and correlation coefficients of the refined parameters. The quantities were obtained by performing error propagation calculations from the experimental errors on the parameters. The stability constant refinement furnishes least-squares estimates of the standard deviation, σ, of the stability constant, β. The error on logβ is calculated as follows: σ(logβ) = [log(β + σ) − log(β − σ)]/2, as previously reported.

Data set [8] relates to HT29 cells. On the set-up: method as in PMID 27614381. The note with it: read-out: GI50 (printed IG50), HT29 cell proliferation; cited from earlier work.
In data set [9] the test system is PC3 cells. Kind of data set: Cell cycle analysis (propidium iodide cytofluorimetry). It is filed as cell-based, human. The note with it: PC3, 48 h at GI50 dose; control 14.6%. The procedure: as §4, §5
Data set [10] relates to HCT116 cells. The data set is described as above. The class given is cell-based, human. The note with it: HCT116, 48 h at GI50 dose; control 17%. The procedure:
as §4, §5

Where [11] appears, read: aqueous solution, spectrophotometric data, HypSpec.
Setting [12] is: logβ11 (MPY1, MPY3) or logβ12 − logβ11 (PY1), read-out: pKa2.
[13] abbreviates: logβ12 − logβ11 (MPY1, MPY3) or logβ13 − logβ12 (PY1), read-out: pKa1.

Where two headings read alike, the source gives them in different places.

As for `COc1ccc(/C=C/c2cc(C)nc(N)n2)cc1OC` [MPY2, 4-[(E)-2-(3,4-dimethoxyphenyl)ethenyl]-6-methylpyrimidin-2-amine], the GI50 with LNCaP cells [1] (Homo sapiens, 48 h) was found to be 73.1 ± 14 µM; with PC3 cells [2] (Homo sapiens, PC-3, 48 h) it was 84.4 ± 0.1 µM.

In the data set on PC3 cells [2], “4,6-bis[(E)-2-(3-methoxyphenyl)ethenyl]pyrimidin-2-amine [PY4]” gave a GI50 of 82.8 ± 23.4 µM.

On to `COc1cc(/C=C/C(=O)CC(=O)/C=C/c2ccc(O)c(OC)c2)ccc1O` [Curcumin, (1E,6E)-1,7-bis (4-hydroxy-3-methoxyphenyl)-1,6-heptadiene-3,5-dione], for which the GI50 in the data set on LNCaP cells [1] (Homo sapiens, 48 h) is greater than 30 µM; in the data set on PC3 cells [2] (Homo sapiens, PC-3, 48 h) it was 23.9 ± 0.4 µM; in the data set with HCT116 cells [4], 13.6 ± 2.9 µM; with HT29 cells [5], greater than 30 µM. In addition, the “% cells SubG1 (apoptotic cells)” value in the data set with LNCaP cells [3] worked out at 7.2%. Moreover, the “% cells S” value with LNCaP cells [3] turned out to be 9.7%. The “% cells G2/M” value in the data set on LNCaP cells [3] came out at 22.3%. For the same molecule, in the data set with LNCaP cells [3], the “% cells G0/G1” value is 58.4%. The “pKa of keto-enol moiety” value in [6] was 8.56.

Take `COc1cc(/C=C/c2cc(C)nc(N)n2)ccc1OCCCN` [MPY3, 4-{(E)-2-[4-(3-aminopropoxy)-3-methoxyphenyl]ethenyl}-6-methylpyrimidin-2-amine]: the “logβ11 (overall protonation constant)” value in [7] (setting [11]) is 8.62 ± 0.01. The “logβ12 (overall protonation constant)” value in data set [7] (setting [11]) came to 13.04 ± 0.01. Besides, the values for the pKa in [7] (setting [12]) and in data set [7] (setting [13]) were 8.62 ± 0.01 and 4.43 ± 0.02, respectively. Further, the GI50 in the data set with LNCaP cells [1] (Homo sapiens, 48 h) is 68.8 ± 21.7 µM; with HCT116 cells [4], 98 ± 13.6 µM.

As to `COc1cc(/C=C/c2cc(C)nc(N)n2)ccc1O` [MPY1, 4-[(E)-2-(2-amino-6-methylpyrimidin-4-yl)ethenyl]-2-methoxyphenol], the “logβ11 (overall protonation constant)” value in data set [7] (setting [11]) came out at 8.99 ± 0.01. In data set [7] (setting [11]), the “logβ12 (overall protonation constant)” value is 13.72 ± 0.01. Also, the pKa amounted to 8.99 ± 0.01 in data set [7] (setting [12]) and 4.73 ± 0.02 in data set [7] (setting [13]). In the data set with LNCaP cells [1] (Homo sapiens, 48 h), this molecule registered a GI50 of 73.9 ± 9.9 µM.

For the molecule `COc1ccc(/C=C/C(=O)CC(=O)/C=C/c2ccc(OC)c(OC)c2)cc1OC` [DiMC, bis-dimethoxycurcumin], in the data set with HT29 cells [8], the GI50 is 43.4 µM.

In the case of `COc1ccc(/C=C/c2cc(/C=C/c3ccc(OC)c(OC)c3)nc(N)n2)cc1OC` [PY3, 4,6-bis[(E)-2-(3,4-dimethoxyphenyl)ethenyl]pyrimidin-2-amine], the GI50 was 12.1 ± 2 µM in the data set on LNCaP cells [1] (Homo sapiens, 48 h); 14.7 ± 0.9 µM in the data set on PC3 cells [2] (Homo sapiens, PC-3, 48 h); 37.9 ± 11.6 µM with HCT116 cells [4]; 19.7 ± 1.1 µM with HT29 cells [5]. Besides, the “% cells SubG1 (apoptotic cells)” value in the data set on LNCaP cells [3] was 4.7%. Moreover, the “% cells S” value in the data set with LNCaP cells [3] is given as 4.7%. For the same molecule, the “% cells G2/M” value in the data set on LNCaP cells [3] is reported as 54.6%; in the data set with PC3 cells [9] it was 62%; in the data set on HCT116 cells [10] it was 33%. In the data set on LNCaP cells [3], the “% cells G0/G1” value was 32.8%.

For the molecule `COc1cc(/C=C/c2cc(/C=C/c3ccc(O)c(OC)c3)nc(N)n2)ccc1O` [PY1, 4,4′-{(2-aminopyrimidine-4,6-diyl)di[(E)ethene-2,1-diyl]}bis(2-methoxyphenol)], the “logβ11 (overall protonation constant)” value in data set [7] (setting [11]) is 10.27 ± 0.03. Also, in [7] (setting [11]), the “logβ12 (overall protonation constant)” value is given as 19.30 ± 0.02. Besides, the “logβ13 (overall protonation constant)” value in [7] (setting [11]) amounted to 24.17 ± 0.05. For the same molecule, the pKa in data set [7] (setting [12]) was determined as 9.04 ± 0.05; in [7] (setting [13]), 4.86 ± 0.07; in data set [7] (pKa3 = logβ11, read-out: pKa3) it was 10.27 ± 0.03. Further, the GI50 in the data set on LNCaP cells [1] was 24.1 ± 8.5 µM; with LNCaP cells [1] (Homo sapiens, 48 h) it was roughly 24 µM; in the data set with PC3 cells [2] (Homo sapiens, PC-3, 48 h) it was roughly 24 µM; in the data set on PC3 cells [2] it was 23.5 ± 9.7 µM; in the data set with HCT116 cells [4] it was 19.9 ± 3.3 µM; in the data set on HT29 cells [5] it was 45.3 ± 4.1 µM. Besides, the “% cells SubG1 (apoptotic cells)” value in the data set with LNCaP cells [3] is 9.6%. The “% cells S” value in the data set with LNCaP cells [3] came out at 6.4%. The “% cells G2/M” value with LNCaP cells [3] came out at 24.8%. For the same molecule, the “% cells G0/G1” value in the data set on LNCaP cells [3] came out at 57.8%.

The values are drawn from publication PMC10531168, “Development of Stable Amino-Pyrimidine–Curcumin Analogs: Synthesis, Equilibria in Solution, and Potential Anti-Proliferative Activity” (International Journal of Molecular Sciences, 2023).
